For data set [1], the target named is T1, LXRα ligand-binding domain (LBD) (Homo sapiens, UniProt Q13133).
T1 construct: expressed in transfected cells; host or cells: HEK293
T1 sequence (Q13133 155-447): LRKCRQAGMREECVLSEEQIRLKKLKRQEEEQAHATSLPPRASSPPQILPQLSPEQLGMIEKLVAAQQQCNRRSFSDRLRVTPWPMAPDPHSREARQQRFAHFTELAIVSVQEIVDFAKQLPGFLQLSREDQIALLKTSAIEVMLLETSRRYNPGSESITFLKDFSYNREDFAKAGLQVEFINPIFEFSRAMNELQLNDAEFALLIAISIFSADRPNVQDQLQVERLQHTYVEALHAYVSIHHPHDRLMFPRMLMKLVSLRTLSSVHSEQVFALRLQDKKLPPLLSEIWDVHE
Nature of the data set: LXR Gal4 reporter transient transfection assay (M2H), Gal4α LBD. Format: cell-based. The note with it: HEK293 cells; read-out: M2H Gal4α LBD activity range (EC50). The procedure:
The tested compounds were usually dissolved, tested and stored as 20 mM stock solutions in DMSO. Since sulfonyl acetic acid derivatives tend to decarboxylate under these conditions, these stock solutions were prepared, tested and stored as 20 mM DMSO stock solutions containing 100 mM trifluoroacetic acid (5 equivalents). Sulfonyl acetic acid derivatives are shelf stable as solid at rt for long time as reported by Griesbrecht et al. (Synlett 2010:374) or Faucher et al. (J. Med. Chem. 2004; 47:18).
LXR Gal4 Reporter Transient Transfection Assays
LXRα and LXRβ activity status was determined via detection of interaction with coactivator and corepressor proteins in mammalian two-hybrid experiments (M2H). For this, via transient transfection the full length (FL) proteins of LXRα (amino acids 1-447; NP005684; SEQ ID NO:7) or LXRβ-(amino acids 1-461; NP009052; SEQ ID NO:8) or the ligand-binding domains (LBD) of LXRα (amino acids 155-447 SEQ ID NO:3) or LXRβ (amino acids 156-461; SEQ ID NO:4) were expressed from pCMV-AD (Stratagene) as fusions to the transcriptional activation domain of NFkB. As cofactors, domains of either the steroid receptor coactivator 1 (SRC1; amino acids 552-887; SEQ ID NO:5) or of the corepressor NCoR (amino acids 1903-2312 SEQ ID NO:6) were expressed as fusions to the DNA binding domain of the yeast transcription factor GAL4 (from pCMV-BD; Stratagene). Interaction was monitored via activation of a coexpressed Firefly Luciferase Reporter gene under control of a promoter containing repetitive GAL4 response elements (vector pFRLuc; Stratagene). Transfection efficiency was controlled via cotransfection of constitutively active pRL-CMV Renilla reniformis luciferase reporter (Promega). HEK293 cells were grown in minimum essential medium (MEM) with 2 mM L-glutamine and Earle's balanced salt solution supplemented with 8.3% fetal bovine serum, 0.1 mM non-essential amino acids, 1 mM sodium pyruvate, at 37° C. in 5% CO2. 3.5×10^4 cells/well were plated in 96-well cell culture plates in growth medium supplemented with 8.3% fetal bovine serum for 16-20 h to ˜90% confluency. For transfection, medium was taken off and LXR and cofactor expressing plasmids as well as the reporter plasmids are added in 30 μL OPTIMEM/well including polyethylene-imine (PEI) as vehicle. Typical amounts of plasmids transfected/well: pCMV-AD-LXR (5 ng), pCMV-BD-cofactor (5 ng), pFR-Luc (100 ng), pRL-CMV (0.5 ng). Compound stocks were prepared in DMSO, prediluted in MEM to a total volume of 120 μL, and added 4 h after addition of the transfection mixture (final vehicle concentration not exceeding 0.2%). Cells were incubated for additional 16 h, lysed for 10 min in 1× Passive Lysis Buffer (Promega) and Firefly and Renilla luciferase activities were measured sequentially in the same cell extract using buffers containing D-luciferine and coelenterazine, respectively. Measurements of luminescence were done in a BMG-Iuminometer.

In data set [2] the target is T2, LXRα full length (FL) (Homo sapiens, UniProt Q13133).
T2 construct: the full length (FL) proteins of LXRα (amino acids 1-447); NP005684; expressed in transfected cells; host or cells: HEK293
T2 sequence (Q13133 1-447): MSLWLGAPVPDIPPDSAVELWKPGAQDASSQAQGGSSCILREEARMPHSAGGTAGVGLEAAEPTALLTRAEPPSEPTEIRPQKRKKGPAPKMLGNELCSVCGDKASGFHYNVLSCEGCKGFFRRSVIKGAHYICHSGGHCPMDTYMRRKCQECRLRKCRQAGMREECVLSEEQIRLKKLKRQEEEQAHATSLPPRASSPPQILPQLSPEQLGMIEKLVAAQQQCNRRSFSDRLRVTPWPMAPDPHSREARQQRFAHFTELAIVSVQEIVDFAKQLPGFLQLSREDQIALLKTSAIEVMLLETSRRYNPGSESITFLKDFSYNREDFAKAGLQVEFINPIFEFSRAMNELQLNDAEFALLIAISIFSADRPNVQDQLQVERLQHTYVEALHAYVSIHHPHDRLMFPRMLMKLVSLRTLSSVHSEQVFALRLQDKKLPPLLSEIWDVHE
Nature of the data set: LXR Gal4 reporter transient transfection assay (M2H), Gal4α FL. Format: cell-based. The following applies: HEK293 cells; read-out: M2H Gal4α FL activity range (EC50). The gist of the method: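 Mammalian two-hybrid in HEK293 cells transiently transfected with LXRα/β full-length or LBD fused to NFkB activation domain, plus GAL4-DBD fusions of SRC1 coactivator or NCoR corepressor domains and a GAL4-responsive firefly luciferase reporter. Compounds added 4 h post-transfection (vehicle ≤0.2% DMSO), 16 h incubation; firefly luciferase normalized to Renilla.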

A short description of data set [3]: Pharmacokinetics in mice, blood and liver exposure via LC-MS. Format: in vivo. The note with it: for liver/blood ratio, 4 h / blood exposure, 4 h / liver exposure, 4 h: Dose (mg) 20, C57BL/6J mice; for blood exposure, 4 h / liver exposure, 4 h: 4 h after administration; for target tissue liver reached (in words): mice, systemic exposure minimized. How it is done: The pharmacokinetics of different sulfonamides was assessed in mice after single dosing and oral and intraperitoneal administrations. Blood and liver exposure was measured via LC-MS.
The study design was as follows:
Animals: C57BL/6J (Janvier) males
Diet: standard rodent chow
Vehicle for i.p. injection: 0.5% HPMC (w:v) in water, injection volume: <5 mL/kg
Animal handling: animals were withdrawn from food at least 12 h before administration
Design: single dose oral and bid ip administration, n=3 animals per group
Sacrifice: at t=4 h after administration
Bioanalytics: LC-MS of liver and blood samples

For orientation: EC50 means the midpoint of the concentration-response curve. For the compound `Cc1cc(C)c(S(=O)(=O)N(Cc2ccc(-c3cc(F)c(CO)c(S(C)(=O)=O)c3)cc2)Cc2ccc(C(F)(F)F)o2)c(C)c1` [Example C3/2], in data set [1], the EC50 is less than 100 nM. For the same compound, the EC50 in data set [2] is less than 100 nM. Besides, in data set [3] (po), the “liver/blood ratio, 4 h” value is on record as “po: 0.56”; the “blood exposure, 4 h” value was “po: 115 ng/mL”; the “liver exposure, 4 h” value is on record as “po: 64 ng/mL”.
`Cc1cc(C)c(S(=O)(=O)N(Cc2ccc(-c3cccc(CC(=O)O)c3)cc2)Cc2ccc(C(F)(F)F)o2)c(C)c1` [Example 2, 2-(4′-(((2,4,6-Trimethyl-N-((5-(trifluoromethyl)furan-2-yl)methyl)phenyl)sulfonamido)methyl)-[1,1′-biphenyl]-3-yl)acetic acid]: the EC50 is 100 to 1000 nM in data set [1] and less than 100 nM in data set [2].
Take `Cc1ccc2ccccc2c1S(=O)(=O)N(Cc1ccc(-c2cccc(S(=O)(=O)CC(=O)O)c2)cc1)Cc1cccc(C(F)(F)F)c1` [11/19]: the EC50 in data set [2] was 100 to 1000 nM. The “target tissue liver reached (in words)” value in data set [3] is listed as “effectively reached”. In data set [3] (po), the “liver/blood ratio, 4 h” value is recorded as “po: 125”; the “blood exposure, 4 h” value is given as “po: 0.01 μM”; the “liver exposure, 4 h” value was “po: 1.07 μM”.
For the compound `Cc1cc(C)c(S(=O)(=O)N(Cc2ccc(-c3cccc(S(=O)(=O)CC(=O)O)c3)cc2)Cc2ccc(C(F)(F)F)o2)c(C)c1` [Example 5, 2-((4′-(((2,4,6-Trimethyl-N-((5-(trifluoromethyl)furan-2-yl)methyl)phenyl)sulfonamido)methyl)-[1,1′-biphenyl]-3-yl)sulfonyl)acetic acid], the EC50 in data set [2] is 1000 to 10000 nM. Further, in data set [3] (ip), the “liver/blood ratio, 4 h” value is recorded as “ip: 27”; the “blood exposure, 4 h” value is “ip: 0.34 μM”; the “liver exposure, 4 h” value is listed as “ip: 9.3 μM”. In addition, the “target tissue liver reached (in words)” value in data set [3] is listed as “effectively reached”. Moreover, in data set [3] (po), the “liver/blood ratio, 4 h” value was “po: 31”; the “blood exposure, 4 h” value is reported as “po: 0.15 μM”; the “liver exposure, 4 h” value is on record as “po: 4.6 μM”.
For `Cc1ccc2ccccc2c1S(=O)(=O)N(Cc1ccc(-c2cccc(C(C)(C)C(=O)O)c2)cc1)Cc1ccc(C(F)(F)F)o1` [Example 24, 2-Methyl-2-(4′-(((2-methyl-N-((5-(trifluoromethyl)furan-2-yl)methyl)naphthalene)-1-sulfonamido)methyl)-[1,1′-biphenyl]-3-yl)propanoic acid], the EC50 in data set [1] was less than 100 nM. Also, the EC50 in data set [2] is less than 100 nM. The “target tissue liver reached (in words)” value in data set [3] is reported as “effectively reached”. For the same compound, in data set [3] (po), the “liver/blood ratio, 4 h” value is “po: 25”; the “blood exposure, 4 h” value is on record as “po: 231 ng/mL”; the “liver exposure, 4 h” value was “po: 5882 ng/mL”.
With `Cc1cc(C)c(S(=O)(=O)N(Cc2ccc(-c3cccc(CC(=O)O)c3)cc2)C(C)c2ccc(C(F)(F)F)o2)c(C)c1` (stereo not drawn) [2/2], the EC50 in data set [1] and in data set [2] was less than 100 nM in each case.
For the compound `Cc1cc(C)c(S(=O)(=O)N(Cc2ccc(C(F)(F)F)o2)Cc2ccc(-c3cccc(C(C)(C)C(=O)O)c3)cc2Cl)c(C)c1` [10/5], the EC50 in data set [1] was less than 100 nM. Further, the EC50 in data set [2] was less than 100 nM. The “target tissue liver reached (in words)” value in data set [3] was “effectively reached”. Besides, in data set [3] (po), the “liver/blood ratio, 4 h” value is recorded as “po: 21”; the “blood exposure, 4 h” value is “po: 242 ng/mL”; the “liver exposure, 4 h” value is “po: 5120 ng/mL”.
With `Cc1cc(C)c(S(=O)(=O)N(Cc2ccc(-c3cccc(S(=O)(=O)C(C)(C)C(=O)O)c3)cc2)Cc2ccc(C(F)(F)F)o2)c(C)c1` [5/2], the 50% effective concentration (EC50) in data set [1] and in data set [2] was 100 to 1000 nM each time.
On to `Cc1cc(C)c(S(=O)(=O)N(Cc2ccc(-c3cccc(C(C)(C)C(=O)O)c3)cc2)Cc2ccc(C(F)(F)F)o2)c(C)c1` [7/5], for which the concentration giving a half-maximal response (EC50) in data set [1] was less than 100 nM. The concentration giving a half-maximal response (EC50) in data set [2] is less than 100 nM. For the same compound, the “target tissue liver reached (in words)” value in data set [3] was “effectively reached”. Further, in data set [3] (po), the “liver/blood ratio, 4 h” value is recorded as “po: 18”; the “blood exposure, 4 h” value is recorded as “po: 300 ng/mL”; the “liver exposure, 4 h” value is listed as “po: 5398 ng/mL”.
With `COc1cc(-c2cccc(C(C)(C)C(=O)O)c2)ccc1CN(Cc1ccc(C(F)(F)F)o1)S(=O)(=O)c1c(C)cc(C)cc1C` [10/4], the EC50 in data set [1] is less than 100 nM. In addition, the EC50 in data set [2] was less than 100 nM. Also, the “target tissue liver reached (in words)” value in data set [3] is recorded as “effectively reached”. Also, in data set [3] (po), the “liver/blood ratio, 4 h” value was “po: 11”; the “blood exposure, 4 h” value was “po: 189 ng/mL”; the “liver exposure, 4 h” value is recorded as “po: 2136 ng/mL”.

Source of the values: patent US20200115357A1, “LIVER X RECEPTORS (LXR) MODULATORS” (Phenex-FXR GmbH, priority 2017, published 2020).
